# Assay results as given in article PMC11507441, “Oilseed Cakes: A Promising Source of Antioxidant, and Anti-Inflammatory Agents—Insights from Lactuca sativa” (International Journal of Molecular Sciences, 2024).
# How the values were obtained:
# S. aureus = test: Antimicrobial screening, zone of inhibition; type: cell-based; conditions: for S. aureus %Activity Index: 1 mg/mL
# Protocol: (§1) The procedure was performed according to […] et al.. A comparison of the extract's zone of inhibition to that of a reference antibiotic's activity index was determined using the following equation:Activity index = (the inhibition zone of extract/the inhibition zone of the standard) × 100
# E. coli = test: Antimicrobial screening, zone of inhibition; type: cell-based; conditions: for E. coli %Activity Index: 1 mg/mL; for zone of inhibition at 1000 µg/mL: Escherichia coli, isolated compounds 1 mg/mL, read-out: E. coli Diameter of Inhibition Zone (mm)
# Protocol: as §1
# ABTS antioxidant assay = type: biochemical; set-up: IC50 in ABTS assay: unit not given beside the values
# Protocol: The experiment was performed in triplicate according to Zaky et al.. The absorbance of control of the resulting green-blue solution (ABTS* radical solution) was recorded at λ max 734 nm.
# P. aeruginosa = test: Antimicrobial screening, zone of inhibition; type: cell-based; conditions: Table 1; for zone of inhibition at 1000 µg/mL: Pseudomonas aeruginosa, isolated compounds 1 mg/mL, read-out: P. aeruginosa Diameter of Inhibition Zone (mm)
# Protocol: The procedure was performed according to Stylianakis et al.. A comparison of the extract’s zone of inhibition to that of a reference antibiotic’s activity index was determined using the following equation:Activity index = (the inhibition zone of extract/the inhibition zone of the standard) × 100
# C. albicans = test: Antimicrobial screening, zone of inhibition; type: cell-based; conditions: for zone of inhibition at 1000 µg/mL: Candida albicans, isolated compounds 1 mg/mL, read-out: C. Albicans Diameter of Inhibition Zone (mm); for C. Albicans %Activity Index: 1 mg/mL
# Protocol: as §1
# [1] = Cytotoxic activity (MTT assay), normal cells; type: cell-based; conditions: human
# Protocol: (§2) The HPLC was performed in the Institute for Plant Biology, TU Braunschweig, using a Young Lin quaternary pump, vacuum degasser, column oven (40 °C), diode array detector (YL9160 PDA), and a Midas Spark Holland autosampler. UV spectra (λ max) were measured in the central laboratory of the Faculty of Pharmaceutical Science at Mansoura University using spectroscopic methanol with an ultraviolet-visible spectrophotometer (Shimadzu 1601 PC, version TCC-240A, Kyoto, Japan). The NMR unit of Mansoura University’s Faculty of Pharmacy obtained nuclear magnetic resonance spectra (^1H-NMR, ^13C-NMR, DEPT-Q, APT, HSQC, and HMBC) using a Bruker DRX 600 NMR spectrometer (600 and 150 MHz for ^1H and ^13C-NMR, respectively) and with the Bruker Corporation Avance III 400 spectrometer, which measures ^1H and ^13C-NMR at 400 and 100 MHz, respectively. The types of solvents that are used are CDCl3, CD3OD, and DMSO-d6. For normal phase chromatography, silica gel G 60–230 mesh (Merck, Darmstadt, Germany) was packed using a wet or dry method in the specified solvent. The purchase of Normal Human lung fibroblast (WI-38), hepatic cancer cell lines (HePG-2), and mammary gland (MCF-7) cell lines from ATCC was made possible by the Holding firm for biological goods and vaccines (VACSERA), which is based in Cairo, Egypt.
# (§3) Using the MTT test, the inhibitory effects of substances on cell growth were ascertained using the cell lines compared to normal lung fibroblast cells (WI-38). The selectivity index was calculated via the Selectivity index (SI) equation: SI equals IC50 normal/IC50 cancer.
# HepG-2 cancer cell line = test: Cytotoxic activity (MTT assay); type: cell-based
# Protocol: as §2, §3
# MCF-7 cancer cell line = test: Cytotoxic activity (MTT assay); type: cell-based
# Protocol: as §2, §3
# [2] = Table S1, relative to ampicillin standard
# [3] = Table S1, extracts and fractions 1 mg/mL
# [4] = Table 1, relative to clotrimazole
# [5] = Table 1, relative to ciprofloxacin
# [6] = IC50 normal (WI-38)/IC50 cancer
compound,measurement,setting,value
"CC1(C)S[C@@H]2[C@H](NC(=O)[C@H](N)c3ccccc3)C(=O)N2[C@H]1C(=O)O [Ampicillin, ampicillin, reference compound]",S. aureus %Activity Index,S. aureus; [2],100%
same,S. aureus Diameter of inhibition zone (mm),S. aureus; [3],22.87±0.15 mm
same,E. coli %Activity Index,E. coli; [2],100%
same,E. coli Diameter of inhibition zone (mm),E. coli; [3],23.9 ± 0.15 mm
O=C1O[C@H]([C@@H](O)CO)C(O)=C1O [Ascorbic acid],IC50 in ABTS assay,"ABTS antioxidant assay; fractions of lettuce seedcake extract, unit not given",29.47 ± 0.17
same,% inhibition in ABTS assay,ABTS antioxidant assay; seed cakes' methanolic extract at 1 mg/mL,88.1%
"O=C(O)c1cn(C2CC2)c2cc(N3CCNCC3)c(F)cc2c1=O [Ciprofloxacin, ciprofloxacin, reference compound]",zone of inhibition at 1000 µg/mL,P. aeruginosa,22.87 ± 0.15 mm
same,zone of inhibition at 1000 µg/mL,E. coli; Table 1,26 ± 0.3 mm
"Clc1ccccc1C(c1ccccc1)(c1ccccc1)n1ccnc1 [Clotrimazole, clotrimazole, reference compound]",zone of inhibition at 1000 µg/mL,C. albicans; Table 1,26.9 ± 0.1 mm
same,C. Albicans %Activity Index,C. albicans; [4],100%
same,C. Albicans %Activity Index,"C. albicans; Table S1, relative to clotrimazole standard",100%
same,C. Albicans Diameter of inhibition zone (mm),C. albicans; [3],25.9±0.1 mm
"O=c1cc(-c2ccc(O)c(O)c2)oc2cc(O)cc(O)c12 [Compound 2, luteolin]",zone of inhibition at 1000 µg/mL,P. aeruginosa,12.9 ± 0.1 mm
same,P. aeruginosa %Activity Index,"P. aeruginosa; 1 mg/mL, relative to ciprofloxacin",56.6%
same,IC50,[1],59.3 ± 3.2 µg/mL
same,zone of inhibition at 1000 µg/mL,C. albicans; Table 1,10.7 ± 0.15 mm
same,C. Albicans %Activity Index,C. albicans; [4],40.5%
same,zone of inhibition at 1000 µg/mL,"S. aureus; Staphylococcus aureus, Table 1, isolated compounds 1 mg/mL, read-out: S. aureus Diameter of Inhibition Zone (mm)",17 ± 0.1 mm
same,S. aureus %Activity Index,S. aureus; [5],71.7%
same,zone of inhibition at 1000 µg/mL,E. coli; Table 1,9.8 ± 0.2 mm
same,E. coli %Activity Index,E. coli; [5],37.8%
same,IC50,"HepG-2 cancer cell line; Homo sapiens, HepG2, read-out: In Vitro Cytotoxicity IC50 (µg/mL) HepG-2",19.5 ± 1.3 µg/mL
same,Selectivity Index HepG2,HepG-2 cancer cell line; [6],3
same,IC50,"MCF-7 cancer cell line; Homo sapiens, MCF7, read-out: In Vitro Cytotoxicity IC50 (µg/mL) MCF-7",11.6 ± 0.9 µg/mL
same,Selectivity Index MCF-7,MCF-7 cancer cell line; [6],5.1
